Test results published in patent publication US20230295200A1 (REGENTS OF THE UNIVERSITY OF MICHIGAN, priority 2022, published 2023).

Legend:
STAT6 protein = molecular target: T1, STAT6 protein (Homo sapiens, UniProt P42226); assay: Fluorescence polarization (FP) binding assay, STAT6; details: FP competition, 5 nM fluorescein-labeled tracer, 200 nM protein, PBS pH7.4; read-out: Binding STAT6
T1 sequence (P42226 1-847): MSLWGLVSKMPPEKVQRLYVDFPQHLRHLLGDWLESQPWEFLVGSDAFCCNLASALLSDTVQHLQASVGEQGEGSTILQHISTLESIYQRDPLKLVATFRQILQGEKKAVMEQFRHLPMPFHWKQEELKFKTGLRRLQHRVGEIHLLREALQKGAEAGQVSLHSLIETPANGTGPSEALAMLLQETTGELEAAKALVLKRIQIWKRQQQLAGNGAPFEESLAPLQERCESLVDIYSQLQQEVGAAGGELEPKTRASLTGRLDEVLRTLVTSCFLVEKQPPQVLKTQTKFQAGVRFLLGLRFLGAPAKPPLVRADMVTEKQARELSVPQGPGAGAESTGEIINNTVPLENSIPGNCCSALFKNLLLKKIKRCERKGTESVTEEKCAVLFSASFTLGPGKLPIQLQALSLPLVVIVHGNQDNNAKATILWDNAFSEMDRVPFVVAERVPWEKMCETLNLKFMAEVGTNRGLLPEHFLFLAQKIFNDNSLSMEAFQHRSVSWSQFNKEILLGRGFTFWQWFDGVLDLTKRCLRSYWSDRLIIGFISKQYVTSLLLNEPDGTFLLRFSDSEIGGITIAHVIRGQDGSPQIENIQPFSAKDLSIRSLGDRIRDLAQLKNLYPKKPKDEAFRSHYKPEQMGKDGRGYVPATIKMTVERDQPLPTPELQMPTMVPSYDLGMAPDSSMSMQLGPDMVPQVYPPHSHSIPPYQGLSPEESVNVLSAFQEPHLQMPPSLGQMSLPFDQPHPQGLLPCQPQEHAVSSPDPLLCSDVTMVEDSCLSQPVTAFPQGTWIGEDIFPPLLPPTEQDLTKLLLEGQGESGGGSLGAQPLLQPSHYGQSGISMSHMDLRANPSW
Outline: (§1)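 5 nM fluorescein tracer + 200 nM STAT protein; PBS pH 7.4, 0.01% BGG, 0.01% Tween-20, 2 mM DTT; shake 15 min, 1 h RT equilibrium; FP read; nonlinear fit for inhibition constants.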

STAT5A = molecular target: T2, STAT5A (Homo sapiens, UniProt P42229); assay: Fluorescence polarization (FP) binding assay, STAT5A; details: FP competition, 5 nM fluorescein-labeled tracer, 200 nM protein, PBS pH7.4
T2 sequence (P42229 1-794): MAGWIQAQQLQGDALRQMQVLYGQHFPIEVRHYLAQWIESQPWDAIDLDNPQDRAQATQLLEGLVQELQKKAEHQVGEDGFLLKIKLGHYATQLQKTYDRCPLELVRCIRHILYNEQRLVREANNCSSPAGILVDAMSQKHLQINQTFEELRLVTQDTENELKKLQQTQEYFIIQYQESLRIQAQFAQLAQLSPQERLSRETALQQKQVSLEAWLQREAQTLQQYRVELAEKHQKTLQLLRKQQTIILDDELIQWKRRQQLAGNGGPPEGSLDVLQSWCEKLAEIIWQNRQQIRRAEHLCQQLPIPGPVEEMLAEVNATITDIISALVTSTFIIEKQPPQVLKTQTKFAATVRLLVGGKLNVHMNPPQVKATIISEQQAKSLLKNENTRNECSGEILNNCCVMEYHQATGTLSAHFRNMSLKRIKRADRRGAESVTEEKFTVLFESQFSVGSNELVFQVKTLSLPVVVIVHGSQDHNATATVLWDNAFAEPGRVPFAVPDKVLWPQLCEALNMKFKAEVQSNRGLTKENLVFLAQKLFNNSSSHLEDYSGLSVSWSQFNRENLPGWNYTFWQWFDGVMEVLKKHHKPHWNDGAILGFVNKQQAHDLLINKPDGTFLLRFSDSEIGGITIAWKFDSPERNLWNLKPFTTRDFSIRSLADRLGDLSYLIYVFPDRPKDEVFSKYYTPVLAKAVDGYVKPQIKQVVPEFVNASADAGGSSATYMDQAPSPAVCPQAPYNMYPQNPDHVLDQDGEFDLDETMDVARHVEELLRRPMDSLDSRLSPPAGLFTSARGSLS
Outline: as §1

Ki (STAT6 protein) [µM] | Ki (STAT5A) [µM] | SMILES
1 to 10 | 1 to 10 | CC(C)(C)[C@H](NC(=O)c1cc2cc(C(F)(F)P(=O)(O)O)ccc2s1)C(=O)N1CCC[C@H]1C(=O)N1CCOC(c2cc(F)c(Cl)cc2Cl)C1 (stereo partly drawn) [Compound 104, ((2-(((2S)-1-((2S)-2-(2-(2,4-dichloro-5-fluorophenyl)morpholine-4-carbonyl)pyrrolidin-1-yl)-3,3-dimethyl-1-oxobutan-2-yl)carbamoyl)benzo[b]thiophen-5-yl)difluoromethyl)phosphonic acid]
1 to 10 | > 10 | Cc1ccccc1C1CCCN(C(=O)[C@@H]2CCCN2C(=O)[C@@H](NC(=O)c2cc3cc(C(F)(F)P(=O)(O)O)ccc3s2)C(C)(C)C)C1 (stereo partly drawn) [Compound 105, ((2-(((2S)-3,3-dimethyl-1-oxo-1-((2S)-2-(3-(o-tolyl)piperidine-1-carbonyl)pyrrolidin-1-yl)butan-2-yl)carbamoyl)benzo[b]thiophen-5-yl)difluoromethyl)phosphonic acid]
0.1 to 1 | 1 to 10 | Cc1ccccc1C1CN(C(=O)[C@@H]2CCCN2C(=O)[C@@H](NC(=O)c2cc3cc(C(F)(F)P(=O)(O)O)ccc3s2)C(C)(C)C)CCO1 (stereo partly drawn) [Compound 106, ((2-(((2S)-3,3-dimethyl-1-oxo-1-((2S)-2-(2-(o-tolyl)morpholine-4-carbonyl)pyrrolidin-1-yl)butan-2-yl)carbamoyl)benzo[b]thiophen-5-yl)difluoromethyl)phosphonic acid]
1 to 10 | > 10 | Cc1ccc(C2CN(C(=O)[C@@H]3CCCN3C(=O)[C@@H](NC(=O)c3cc4cc(C(F)(F)P(=O)(O)O)ccc4s3)C(C)(C)C)CCO2)c(C)c1 (stereo partly drawn) [Compound 107, ((2-(((2S)-1-((2S)-2-(2-(2,4-dimethylphenyl)morpholine-4-carbonyl)pyrrolidin-1-yl)-3,3-dimethyl-1-oxobutan-2-yl)carbamoyl)benzo[b]thiophen-5-yl)difluoromethyl)phosphonic acid]
1 to 10 | > 10 | Cc1cc(C2CN(C(=O)[C@@H]3CCCN3C(=O)[C@@H](NC(=O)c3cc4cc(C(F)(F)P(=O)(O)O)ccc4s3)C(C)(C)C)CCO2)ccc1F (stereo partly drawn) [Compound 108, (difluoro(2-(((2S)-1-((2S)-2-(2-(4-fluoro-3-methylphenyl)morpholine-4-carbonyl)pyrrolidin-1-yl)-3,3-dimethyl-1-oxobutan-2-yl)carbamoyl)benzo[b]thiophen-5-yl)methyl)phosphonic acid]
0.1 to 1 | > 10 | CC(C)(C)[C@H](NC(=O)c1cc2cc(C(F)(F)P(=O)(O)O)ccc2s1)C(=O)N1CCC[C@H]1C(=O)N1CCOC(c2ccccc2F)C1 (stereo partly drawn) [Compound 109, (difluoro(2-(((2S)-1-((2S)-2-(2-(2-fluorophenyl)morpholine-4-carbonyl)pyrrolidin-1-yl)-3,3-dimethyl-1-oxobutan-2-yl)carbamoyl)benzo[b]thiophen-5-yl)methyl)phosphonic acid]
1 to 10 | > 10 | CC(C)(C)[C@H](NC(=O)c1cc2cc(C(F)(F)P(=O)(O)O)ccc2s1)C(=O)N1CCC[C@H]1C(=O)N1CCOC(c2ccc(F)cc2F)C1 (stereo partly drawn) [Compound 110, ((2-(((2S)-1-((2S)-2-(2-(2,4-difluorophenyl)morpholine-4-carbonyl)pyrrolidin-1-yl)-3,3-dimethyl-1-oxobutan-2-yl)carbamoyl)benzo[b]thiophen-5-yl)difluoromethyl)phosphonic acid]
0.1 to 1 | > 10 | CC(C)(C)[C@H](NC(=O)c1cc2cc(C(F)(F)P(=O)(O)O)ccc2s1)C(=O)N1CCC[C@H]1C(=O)N1CCOC(c2ccc(F)c(F)c2)C1 (stereo partly drawn) [Compound 111, ((2-(((2S)-1-((2S)-2-(2-(3,4-difluorophenyl)morpholine-4-carbonyl)pyrrolidin-1-yl)-3,3-dimethyl-1-oxobutan-2-yl)carbamoyl)benzo[b]thiophen-5-yl)difluoromethyl)phosphonic acid]
0.1 to 1 | > 10 | CC(C)(C)[C@H](NC(=O)c1cc2cc(C(F)(F)P(=O)(O)O)ccc2s1)C(=O)N1CCC[C@H]1C(=O)N1CCOC(c2ccccc2Cl)C1 (stereo partly drawn) [Compound 112, ((2-(((2S)-1-((2S)-2-(2-(2-chlorophenyl)morpholine-4-carbonyl)pyrrolidin-1-yl)-3,3-dimethyl-1-oxobutan-2-yl)carbamoyl)benzo[b]thiophen-5-yl)difluoromethyl)phosphonic acid]
0.1 to 1 | 1 to 10 | CC(C)(C)[C@H](NC(=O)c1cc2cc(C(F)(F)P(=O)(O)O)ccc2s1)C(=O)N1CCC[C@H]1C(=O)N1CCOC(c2ccc(F)c(Cl)c2)C1 (stereo partly drawn) [Compound 113, ((2-(((2S)-1-((2S)-2-(2-(3-chloro-4-fluorophenyl)morpholine-4-carbonyl)pyrrolidin-1-yl)-3,3-dimethyl-1-oxobutan-2-yl)carbamoyl)benzo[b]thiophen-5-yl)difluoromethyl)phosphonic acid]
0.1 to 1 | 1 to 10 | CC(C)(C)[C@H](NC(=O)c1cc2cc(C(F)(F)P(=O)(O)O)ccc2s1)C(=O)N1CCC[C@H]1C(=O)N1CCOC(c2ccc(Cl)c(Cl)c2)C1 (stereo partly drawn) [Compound 114, ((2-(((2S)-1-((2S)-2-(2-(3,4-dichlorophenyl)morpholine-4-carbonyl)pyrrolidin-1-yl)-3,3-dimethyl-1-oxobutan-2-yl)carbamoyl)benzo[b]thiophen-5-yl)difluoromethyl)phosphonic acid]
1 to 10 | > 10 | CCOC(=O)C1CCN(C(=O)[C@@H]2CCCN2C(=O)[C@@H](NC(=O)c2cc3cc(C(F)(F)P(=O)(O)O)ccc3s2)C(C)(C)C)CC1c1ccccc1 (stereo partly drawn) [Compound 115, ((2-(((2S)-1-((2S)-2-(4-(ethoxycarbonyl)-3-phenylpiperidine-1-carbonyl)pyrrolidin-1-yl)-3,3-dimethyl-1-oxobutan-2-yl)carbamoyl)benzo[b]thiophen-5-yl)difluoromethyl)phosphonic acid]
1 to 10 | > 10 | CC(=O)N1CC[C@H]2CC[C@@H](C(=O)N3CCOC[C@@H]3c3ccccc3)N2C(=O)[C@@H](NC(=O)c2cc3cc(C(F)(F)P(=O)(O)O)ccc3s2)C1 [Compound 120, ((2-(((5S,8S,10aR)-3-acetyl-6-oxo-8-((S)-3-phenylmorpholine-4-carbonyl)decahydropyrrolo[1,2-a][1,5]diazocin-5-yl)carbamoyl)benzo[b]thiophen-5-yl)difluoromethyl)phosphonic acid]
1 to 10 | > 10 | CC(=O)N1CC[C@H]2CC[C@@H](C(=O)N3CCOC[C@H]3c3ccccc3)N2C(=O)[C@@H](NC(=O)c2cc3cc(C(F)(F)P(=O)(O)O)ccc3s2)C1 [Compound 121, ((2-(((5S,8S,10aR)-3-acetyl-6-oxo-8-((R)-3-phenylmorpholine-4-carbonyl)decahydropyrrolo[1,2-a][1,5]diazocin-5-yl)carbamoyl)benzo[b]thiophen-5-yl)difluoromethyl)phosphonic acid]
0.1 to 1 | > 10 | CC(=O)NC(C)(C)[C@H](NC(=O)c1cc2cc(C(F)(F)P(=O)(O)O)ccc2s1)C(=O)N1CCC[C@H]1C(=O)N1CCO[C@H](c2ccccc2)C1 [Compound 122, ((2-(((S)-3-acetamido-3-methyl-1-oxo-1-((S)-2-((R)-2-phenylmorpholine-4-carbonyl)pyrrolidin-1-yl)butan-2-yl)carbamoyl)benzo[b]thiophen-5-yl)difluoromethyl)phosphonic acid]
